Reference: PMC12583827, “Harnessing microbial-derived metabolites in the urinary tract to prevent infection induced catheter encrustation” (Nature Communications, 2025)

Tested on: M. morganii urease
Test: Urease activity assay, whole cell M. morganii TA43
Assay type: cell-based, Morganella morganii
Method: Urease activity was measured as described previously in triplicate with at least three biological replicates[21]. Briefly, bacteria were cultured for ~18 h in LB broth, concentrated to an OD600 of 4, washed once in saline, and diluted (1:10 for P. mirabilis and 1:50 for P. stuartii and M. morganii) into candidate dampening metabolites in potassium phosphate buffer or human urine pH7 and supplemented with 500 mM urea and 0.01% phenol red. Bacterial suspensions were distributed into a 96-well plate, incubated at 37 °C with double-orbital shaking in a Synergy H1 plate reader (BioTek), and absorbance (OD562) was measured every 60 seconds for 180 minutes. Isogenic urease mutants (Supplementary Data 1) served as negative controls for P. mirabilis and P. stuartii and a vehicle control served as a negative control for M. morganii.

For O.O=C(O)[C@H](O)Cc1cnc[nH]1 [D-imidazole lactate, D-imidazolelactic acid hydrate], the “urease activity in M. morganii” value was “most potent urease inhibition”.
